Experimental data from US12473301B2, “Isoquinoline compounds for the treatment of cancer” (Genentech, Inc., priority 2018, dated 2025).

Biological target: HPK1 (Homo sapiens (Human), UniProt Q92918, S171E/T165E)
Test: HPK1-FL HTRF Enzymatic Assay ("HTRF")
Assay type: biochemical
Settings: HPK full length, ATP 1 mM
Protocol: HPK1-FL HTRF Enzymatic Assay (“HTRF”)
HPK-FL enzyme phosphorylates Biotin-SLP-76 substrate in the presence of ATP at 1 mM and varying concentrations of test compound. Product is detected by FRET using Eu-anti-pSLP76 Ab and SA-XL665. Also see www.cisbio.com/HTRF for additional HTRF technology information.
Instrumentation: Echo555 compound dispenser; Agilent Bravo; Perkin Elmer Envision.
To a 384 well Proxiplate with 80 nL compound or DMSO spotted on was added 4 μl/well kinase mix. The mixture was preincubated for 30 minutes and then 4 μl/well substrate mix was added. The solution was incubated for 60 min and then 4 μl/well detection mix was added. The solution was incubated for another 60 min. The plates were then loaded onto a
Perkin Elmer Envision and the TR-FRET signal was measured at […] and 665 nm. A ratio of 665/620 was used to calculate the % activity at each concentration of compound.

HPK1, sequence (Q92918 whole entry T165E/S171E): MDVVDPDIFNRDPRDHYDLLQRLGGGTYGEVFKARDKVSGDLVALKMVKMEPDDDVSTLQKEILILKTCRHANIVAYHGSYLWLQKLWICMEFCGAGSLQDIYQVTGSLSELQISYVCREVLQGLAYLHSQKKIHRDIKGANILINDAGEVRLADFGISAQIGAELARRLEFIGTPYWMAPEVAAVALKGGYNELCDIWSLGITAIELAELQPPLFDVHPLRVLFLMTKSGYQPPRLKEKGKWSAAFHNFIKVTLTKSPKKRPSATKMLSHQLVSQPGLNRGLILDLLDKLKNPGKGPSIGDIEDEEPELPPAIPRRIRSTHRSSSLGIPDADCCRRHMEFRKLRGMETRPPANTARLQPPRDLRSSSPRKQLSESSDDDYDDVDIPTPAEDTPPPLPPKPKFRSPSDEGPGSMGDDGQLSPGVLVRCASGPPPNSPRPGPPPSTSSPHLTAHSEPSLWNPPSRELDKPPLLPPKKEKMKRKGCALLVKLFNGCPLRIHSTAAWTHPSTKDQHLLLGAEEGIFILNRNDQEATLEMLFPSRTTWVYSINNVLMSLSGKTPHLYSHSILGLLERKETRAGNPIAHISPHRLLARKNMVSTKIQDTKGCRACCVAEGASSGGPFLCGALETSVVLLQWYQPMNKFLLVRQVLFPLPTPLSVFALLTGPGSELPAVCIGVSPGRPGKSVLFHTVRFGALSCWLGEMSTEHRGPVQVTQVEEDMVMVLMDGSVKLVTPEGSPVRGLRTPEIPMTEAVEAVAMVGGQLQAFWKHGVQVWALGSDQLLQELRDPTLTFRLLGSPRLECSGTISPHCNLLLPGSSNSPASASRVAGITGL

Row | Compound | Ki
1 | Cc1c(-c2cc3cc(NC(=O)OCC4(F)CCNC4)ncc3cc2F)cnc2c1NCCO2 (racemic) [Compound 106, (3-Fluoropyrrolidin-3-yl)methyl (7-fluoro-6-(8-methyl-2,3-dihydro-1H-pyrido[2,3-b][1,4]oxazin-7-yl)isoquinolin-3-yl)carbamate] | 2.4 nM
2 | Cc1c(-c2cc3cc(NC(=O)OCC4CCNC4)ncc3cc2F)cnc2c1NCCO2 (racemic) [Compound 107, Pyrrolidin-3-ylmethyl (7-fluoro-6-(8-methyl-2,3-dihydro-1H-pyrido[2,3-b][1,4]oxazin-7-yl)isoquinolin-3-yl)carbamate] | 2.1 nM
3 | Cc1c(-c2cc3cc(NC(=O)OC4COC5(CCNC5)C4)ncc3cc2F)cnc2c1NCCO2 (racemic) [Compound 108, 1-Oxa-7-azaspiro[4.4]nonan-3-yl (7-fluoro-6-(8-methyl-2,3-dihydro-1H-pyrido[2,3-b][1,4]oxazin-7-yl)isoquinolin-3-yl)carbamate] | 4 nM
4 | Cc1c(-c2cc3cc(NC(=O)OCC(C)N)ncc3cc2F)cnc2c1NCCO2 (racemic) [Compound 110, 2-Aminopropyl (7-fluoro-6-(8-methyl-2,3-dihydro-1H-pyrido[2,3-b][1,4]oxazin-7-yl)isoquinolin-3-yl)carbamate] | 29 nM
5 | Cc1c(-c2cc3cc(NC(=O)OCC45CC4CCN5)ncc3cc2F)cnc2c1NCCO2 (racemic) [Compound 122, (2-Azabicyclo[3.1.0]hexan-1-yl)methyl (7-fluoro-6-(8-methyl-2,3-dihydro-1H-pyrido[2,3-b][1,4]oxazin-7-yl)isoquinolin-3-yl)carbamate] | 24 nM
6 | Cc1c(-c2cc3cc(NC(=O)OC4CCC45CCNC5)ncc3cc2F)cnc2c1NCCO2 (racemic) [Compound 123, 6-Azaspiro[3.4]octan-1-yl (7-fluoro-6-(8-methyl-2,3-dihydro-1H-pyrido[2,3-b][1,4]oxazin-7-yl)isoquinolin-3-yl)carbamate] | 7.5 nM
7 | Cc1c(-c2cc3cc(NC(=O)O[C@H]4CCCC[C@@H]4C#N)ncc3c(Cl)c2F)cnc2c1NCCO2 (single isomer, unassigned) [Compound 126a] | 492 nM
8 | Cc1c(-c2cc3cc(NC(=O)O[C@@H]4CCCC[C@H]4C#N)ncc3c(Cl)c2F)cnc2c1NCCO2 (single isomer, unassigned) [Compound 126b] | 0.945 nM
9 | Cc1c(-c2cc3cc(NC(=O)O[C@@H]4CCC[C@H]4C#N)ncc3c(Cl)c2F)cnc2c1NCCO2 (single isomer, unassigned) [Compound 127a] | 0.805 nM
10 | Cc1c(-c2cc3cc(NC(=O)O[C@H]4CCC[C@@H]4C#N)ncc3cc2F)cnc2c1NCCO2 (single isomer, unassigned) [Compound 128b] | 0.78 nM
11 | Cc1c(-c2cc3cc(NC(=O)NC(C)CC#N)ncc3cc2F)cnc2c1NCCO2 (single isomer, unassigned) [Compound 203b] | 1.1 nM
12 | CC[C@@H]1[C@@H](C(=O)Nc2cc3cc(-c4cnc5c(c4C)NCCO5)c(F)cc3cn2)[C@@H]1c1cnn(C)c1 (single isomer, unassigned) [Compound 301a] | 0.9 nM
13 | CC[C@H]1[C@H](C(=O)Nc2cc3cc(-c4cnc5c(c4C)NCCO5)c(F)cc3cn2)[C@H]1c1cnn(C)c1 (single isomer, unassigned) [Compound 301b] | 8 nM
14 | CC[C@H]1[C@@H](C(=O)Nc2cc3cc(-c4cnc5c(c4C)NCCO5)c(F)cc3cn2)[C@@H]1c1cnn(C)c1 (single isomer, unassigned) [Compound 301d] | 1.8 nM
15 | Cc1c(-c2cc3cc(NC(=O)OC4CCOCC4)ncc3cc2F)cnc2c1NCCO2 [Compound 103, Tetrahydro-2H-pyran-4-yl (7-fluoro-6-(8-methyl-2,3-dihydro-1H-pyrido[2,3-b][1,4]oxazin-7-yl)isoquinolin-3-yl)carbamate] | 5 nM
16 | CC(=O)N1CC(OC(=O)Nc2cc3cc(-c4cnc5c(c4C)NCCO5)c(F)cc3cn2)C1 [Compound 104, 1-Acetylazetidin-3-yl (7-fluoro-6-(8-methyl-2,3-dihydro-1H-pyrido[2,3-b][1,4]oxazin-7-yl)isoquinolin-3-yl)carbamate] | 2.9 nM
17 | Cc1c(-c2cc3cc(NC(=O)OC[C@H]4CCCN4)ncc3cc2F)cnc2c1NCCO2 [Compound 109a, (R)-Pyrrolidin-2-ylmethyl (7-fluoro-6-(8-methyl-2,3-dihydro-1H-pyrido[2,3-b][1,4]oxazin-7-yl)isoquinolin-3-yl)carbamate] | 25 nM
18 | Cc1c(-c2cc3cc(NC(=O)OCC4(F)CCNCC4)ncc3cc2F)cnc2c1NCCO2 [Compound 111, (4-Fluoropiperidin-4-yl)methyl (7-fluoro-6-(8-methyl-2,3-dihydro-1H-pyrido[2,3-b][1,4]oxazin-7-yl)isoquinolin-3-yl)carbamate] | 4 nM

The remaining molecules from weak to strong by Ki, led by results:

Row | Ki | Compound
19 | 45 nM | Cc1c(N)cncc1-c1cc2cc(NC(=O)OCC3CC3)ncc2cc1F [Compound 102, Cyclopropylmethyl (6-(5-amino-4-methylpyridin-3-yl)-7-fluoroisoquinolin-3-yl)carbamate]
20 | 10 nM | Cc1c(-c2cc3cc(NC(=O)NC(C)c4cnn(C)c4)ncc3cc2F)cnc2c1NCCO2 (single isomer, unassigned) [Compound 201b]
21 | 7.5 nM | Cc1c(-c2cc3cc(NC(=O)OCC4CCCCO4)ncc3cc2F)cnc2c1NCCO2 (racemic) [Compound 116, (Tetrahydro-2H-pyran-2-yl)methyl (7-fluoro-6-(8-methyl-2,3-dihydro-1H-pyrido[2,3-b][1,4]oxazin-7-yl)isoquinolin-3-yl)carbamate]
22 | 4 nM | Cc1c(-c2cc3cc(NC(=O)NC(C)CC#N)ncc3cc2F)cnc2c1NCCO2 (single isomer, unassigned) [Compound 203a]
23 | 3.75 nM | Cc1c(-c2cc3cc(NC(=O)O[C@H]4CCC[C@@H]4C#N)ncc3c(Cl)c2F)cnc2c1NCCO2 (single isomer, unassigned) [Compound 127b]
24 | 2.7 nM | Cc1c(-c2cc3cc(NC(=O)OCC4CC4)ncc3cc2F)cnc2c1NCCO2 [Compound 101, Cyclopropylmethyl (7-fluoro-6-(8-methyl-2,3-dihydro-1H-pyrido[2,3-b][1,4]oxazin-7-yl)isoquinolin-3-yl)carbamate]
25 | 2.5 nM | Cc1c(-c2cc3cc(NC(=O)O[C@@H]4CCC[C@H]4C#N)ncc3cc2F)cnc2c1NCCO2 (single isomer, unassigned) [Compound 128a]
26 | 2.5 nM | Cc1c(-c2cc3cc(NC(=O)NC4CCOC4)ncc3cc2F)cnc2c1NCCO2 (single isomer, unassigned) [Compound 206b]
27 | 1.5 nM | COC(C)CCOC(=O)Nc1cc2cc(-c3cnc4c(c3C)NCCO4)c(F)cc2cn1 (racemic) [Compound 114, 3-Methoxybutyl (7-fluoro-6-(8-methyl-2,3-dihydro-1H-pyrido[2,3-b][1,4]oxazin-7-yl)isoquinolin-3-yl)carbamate]
28 | 0.95 nM | Cc1c(-c2cc3cc(NC(=O)NC(C)c4cnn(C)c4)ncc3cc2F)cnc2c1NCCO2 (single isomer, unassigned) [Compound 201a]
29 | 0.91 nM | CNC(=O)N1CC(OC(=O)Nc2cc3cc(-c4cnc5c(c4C)NCCO5)c(F)cc3cn2)C1 [Compound 105, 1-(Methylcarbamoyl)azetidin-3-yl (7-fluoro-6-(8-methyl-2,3-dihydro-1H-pyrido[2,3-b][1,4]oxazin-7-yl)isoquinolin-3-yl)carbamate]
30 | 0.88 nM | Cc1c(-c2cc3cc(NC(=O)NC4CCOC4)ncc3cc2F)cnc2c1NCCO2 (single isomer, unassigned) [Compound 206a]
